System: rabbit skeletal myofibrils (fast skeletal myofibrils)
Assay: Activation of fast skeletal myofibrils (PUMA assay, PK/LDH-coupled ATPase at pCa25)
Assay type: biochemical
Conditions: AC1.4 determined according to the procedure of Example 39; reported as class symbols
Method in brief: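 Detergent-washed rabbit psoas myofibrils (~90% fast fibres, calcium-regulated) assayed at calcium giving 25% of maximal ATPase rate (pCa25). ADP turnover coupled via pyruvate kinase/lactate dehydrogenase to NADH oxidation, read at 340 nm. Buffer 12 mM PIPES, 2 mM MgCl2, 1 mM DTT, pH 6.8; AC1.4 values derived.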

Row | Mean AC1.4 | SMILES
1 | A (A=<1 uM) | CC(C)(CNc1ccc(-c2ccc3[nH]nc(NS(C)(=O)=O)c3c2)nn1)c1ccc(F)cc1 [[5-(6-{[2-(4-fluorophenyl)-2-methylpropyl]amino}pyridazin-3-yl)(1H-indazol-3-yl)](methylsulfonyl)amine]
2 | A (A=<1 uM) | CC(C)(CNc1ccc(-c2ccc3c(N)noc3c2)nn1)c1ccc(F)cc1 [[6-(3-aminobenzo[d]isoxazol-6-yl)pyridazin-3-yl][2-(4-fluorophenyl)-2-methylpropyl]amine]
3 | B (B=1-10 uM) | CC(C)(CNc1ccc(-c2cccc3c(N)n[nH]c23)nn1)c1ccc(F)cc1 [[6-(3-amino(1H-indazol-7-yl))pyridazin-3-yl][2-(4-fluorophenyl)-2-methylpropyl]amine]
4 | B (B=1-10 uM) | NC(=O)c1cccc(-c2ccc(NCCc3ccccc3Cl)nn2)c1
5 | B (B=1-10 uM) | CC(C)(CNc1ccc(-c2cc(C(N)=O)c3[nH]ncc3c2)nn1)c1ccc(F)cc1 [5-(6-{[2-(4-fluorophenyl)-2-methylpropyl]amino}pyridazin-3-yl)-1H-indazole-7-carboxamide]
6 | D (D=>20 uM) | CC(C)(CNc1ccc(C(=O)Nc2ccn[nH]2)nn1)c1ccc(F)cc1 [(6-{[2-(4-fluorophenyl)-2-methylpropyl]amino}pyridazin-3-yl)-N-pyrazol-5-ylcarboxamide]
7 | D (D=>20 uM) | CC(C)(Cc1ccc(F)cc1)Nc1ccc(-c2ccc3[nH]c(=O)[nH]c3c2)nn1
8 | B (B=1-10 uM) | Cc1nc2cc(-c3ccc(NCC(C)(C)c4ccc(F)cc4)nn3)ccc2o1 [[2-(4-fluorophenyl)-2-methylpropyl][6-(2-methylbenzoxazol-5-yl)pyridazin-3-yl]amine]
9 | B (B=1-10 uM) | NC(=O)c1cccc(-c2ccc(NCC3CCCc4ccccc43)nn2)c1 (stereo not drawn)
10 | B (B=1-10 uM) | CC(C)(CNc1ccc(-c2ccccc2C(N)=O)nn1)c1ccc(F)cc1 [2-(6-{[2-(4-fluorophenyl)-2-methylpropyl]amino}pyridazin-3-yl)benzamide]
11 | B (B=1-10 uM) | CC(C)(CNc1ccc(CNS(C)(=O)=O)nn1)c1ccc(F)cc1 [[(6-{[2-(4-fluorophenyl)-2-methylpropyl]amino}pyridazin-3-yl)methyl](methylsulfonyl)amine]
12 | D (D=>20 uM) | CC(=O)N1CC=C(c2ccc(NCC(C)(C)c3ccc(F)cc3)nn2)CC1 [1-acetyl-4-(6-{[2-(4-fluorophenyl)-2-methylpropyl]amino}pyridazin-3-yl)-1,2,5,6-tetrahydropyridine]
13 | D (D=>20 uM) | NC(=O)c1cccc(-c2ccc(NCCc3cnccn3)nn2)c1 [3-{6-[(2-pyrazin-2-ylethyl)amino]pyridazin-3-yl}benzamide]
14 | A (A=<1 uM) | CC(C)(CNc1ccc(-c2cccc(C(=O)NCCN)c2)nn1)c1ccc(F)cc1 [N-(2-aminoethyl)[3-(6-{[2-(4-fluorophenyl)-2-methylpropyl]amino}pyridazin-3-yl)phenyl]carboxamide]
15 | D (D=>20 uM) | CC(C)(CNc1ccc(-c2cnc(=O)[nH]c2)nn1)c1ccc(F)cc1
16 | A (A=<1 uM) | Nc1ccc(-c2ccc(NCC3(c4ncccc4F)CCC3)nn2)nc1 [[6-(5-amino(2-pyridyl))pyridazin-3-yl]{[(3-fluoro(2-pyridyl))cyclobutyl]methyl}amine]
17 | D (D=>20 uM) | CC(C)(O)c1ccc(C(C)(C)CNc2ccc(-c3ccc4[nH]nc(N)c4c3)nn2)cc1

Same assay, conditions: median AC1.4 class, procedure of Example 39

Row | Mean AC1.4 | SMILES
18 | D (D=>20 uM) | O=C(O)C1CN=C(c2ccc(NCC3(c4ncccc4F)CCC3)nn2)N1 (stereo not drawn)
19 | D (D=>20 uM) | CCOC(=O)C(C(=O)OCC)c1ccc(NCC2(c3ncccc3F)CCC2)nn1
20 | D (D=>20 uM) | N#Cc1ccc(C2(Nc3ccc(-c4cc(C(N)=O)ccc4F)nn3)CCC2)nc1
21 | D (D=>20 uM) | NC(=O)C1CN=C(c2ccc(NCC3(c4ncccc4F)CCC3)nn2)N1 (stereo not drawn)
22 | B (B=1-10 uM) | Fc1cccnc1C1(Nc2ccc(-c3ccc4[nH]ncc4c3)nn2)CCC1 [(6-(1H-indazol-5-yl)pyridazin-3-yl)[(3-fluoro(2-pyridyl))cyclobutyl]amine]
23 | B (B=1-10 uM) | NC(=O)c1c[nH]c(-c2ccc(NCC3(c4ncccc4F)CCC3)nn2)n1 [2-[6-({[(3-fluoro-2-pyridyl)cyclobutyl]methyl}ami-no)pyridazin-3-yl]imidazole-4-carboxamide]
24 | A (A=<1 uM) | O=C(NC[C@@H](O)CO)c1ccc(F)c(-c2ccc(NC[C@]3(c4ncccc4F)C[C@H](F)C3)nn2)c1 [N-((2R)-2,3-dihydroxypropyl){4-fluoro-3-[6-({[3-fluoro-1-(3-fluoro(2-pyridyl))cyclobutyl]methyl}ami-no)pyridazin-3-yl]phenyl}carboxamide]
25 | B (B=1-10 uM) | c1ccc(-c2ccc(NC3(c4ccccc4)CCC3)nn2)cc1 [(phenylcyclobutyl)(6-phenylpyridazin-3-yl)amine]
26 | A (A=<1 uM) | O=C(NCCO)c1cnc(-c2ccc(NCC3(c4ncccc4F)CCC3)nn2)s1 [{2-[6-({[(3-fluoro(2-pyridyl))cyclobutyl]methyl}ami-no)pyridazin-3-yl](1,3-thiazol-5-yl)}-N-(2-hydroxyethyl)carboxamide]
27 | C (C=10-20 uM) | NC(=O)c1ncccc1-c1ccc(NCC2(c3ncccc3F)CCC2)nn1
28 | D (D=>20 uM) | O=C(CNC(=O)c1ccc(NCC2(c3ncccc3F)CCC2)nn1)OCc1ccccc1 [phenylmethyl 2-{[6-({[(3-fluoro-2-pyridyl)cyclobutyl]methyl}ami-no)pyridazin-3-yl]carbonylamino}acetate]
29 | A (A=<1 uM) | O=c1[nH]nc(-c2ccc(-c3ccc(NCC4(c5ncccc5F)CCC4)nn3)s2)[nH]1 [3-{5-[6-({[(3-fluoro-2-pyridyl)cyclobutyl]methyl}ami-no)pyridazin-3-yl]-2-thienyl}-1,2,4-triazolin-5-one]
30 | B (B=1-10 uM) | N#Cc1cccc(-c2ccc(NC[C@]3(c4ncccc4F)C[C@H](F)C3)nn2)c1 [3-[6-({[3-fluoro-1-(3-fluoro(2-pyridyl))cyclobutyl]methyl}ami-no)pyridazin-3-yl]benzenecarbonitrile]
31 | C (C=10-20 uM) | O=C(O)c1cnc(-c2ccc(NCC3(c4ncccc4F)CCC3)nn2)s1 [2-[6-({[(3-fluoro-2-pyridyl)cyclobutyl]methyl}ami-no)pyridazin-3-yl]-1,3-thiazole-5-carboxylic acid]
32 | A (A=<1 uM) | NC(=O)c1cccc(-c2ccc(NC[C@]3(c4ncccc4F)C[C@H](F)C3)nn2)c1 [3-[6-({[3-fluoro-1-(3-fluoro(2-pyridyl))cyclobutyl]methyl}ami-no)pyridazin-3-yl]benzamide]
33 | B (B=1-10 uM) | NC(=O)c1cc(-c2ccc(NCC3(c4ncccc4F)CCC3)nn2)on1
34 | B (B=1-10 uM) | Fc1cccnc1C1(CNc2ccc(-c3nc4cccnc4s3)nn2)CCC1 [{[(3-fluoro(2-pyridyl))cyclobutyl]methyl}(6-(1,3-thiazolino[5,4-b]pyridin-2-yl)pyridazin-3-yl)amine]
35 | B (B=1-10 uM) | NS(=O)(=O)c1cnc(-c2ccc(NCC3(c4ncccc4F)CCC3)nn2)s1 [2-[6-({[(3-fluoro-2-pyridyl)cyclobutyl]methyl}ami-no)pyridazin-3-yl]-1,3-thiazole-5-sulfonamide]

Same assay, conditions: median AC1.4 reported as class; procedure of Example 39

Row | Mean AC1.4 | SMILES
36 | A (A=<1 uM) | CC(C)(N)C(=O)NCc1cnc(-c2ccc(NCC(C)(C)c3ncccc3Cl)nn2)s1 [2-amino-N-{[2-(6-{[2-(3-chloro(2-pyridyl))-2-methylpropyl]amino}pyridazin-3-yl)(1,3-thiazol-5-yl)]methyl}-2-methylpropanamide]
37 | D (D=>20 uM) | NC(=O)Cc1nnc(NC(=O)c2ccc(NCC3(c4ncccc4F)CCC3)nn2)s1 [N-[5-(carbamoylmethyl)(1,3,4-thiadiazol-2-yl)][6-({[(3-fluoro(2-pyridyl))cyclobutyl]methyl}ami-no)pyridazin-3-yl]carboxamide]
38 | D (D=>20 uM) | NC(=O)c1coc(NC(=O)c2ccc(NCC3(c4ncccc4F)CCC3)nn2)n1 [2-{[6-({[(3-fluoro-2-pyridyl)cyclobutyl]methyl}amino)pyr-idazin-3-yl]carbonylamino}-1,3-oxazole-4-carboxamide]
39 | D (D=>20 uM) | O=C(N[C@H]1CCNC1=O)c1ccc(NCC2(c3ncccc3F)CCC2)nn1 [N-((3S)-2-oxopyrrolidin-3-yl)[6-({[(3-fluoro(2-pyridyl))cyclobutyl]methyl}ami-no)pyridazin-3-yl]carboxamide]
40 | D (D=>20 uM) | CCOC(=O)c1coc(NC(=O)c2ccc(NCC3(c4ncccc4F)CCC3)nn2)n1 [ethyl 2-{[6-({[(3-fluoro-2-pyridyl)cyclobutyl]methyl}ami-no)pyridazin-3-yl]carbonylamino}-1,3-oxazole-4-carboxylate]
41 | A (A=<1 uM) | NC(=O)c1cc(-c2ccc(NC[C@]3(c4ncccc4F)C[C@H](F)C3)nn2)c(F)cc1O [4-fluoro-5-[6-({[3-fluoro-1-(3-fluoro(2-pyridyl))cyclobutyl]methyl}ami-no)pyridazin-3-yl]-2-hydroxybenzamide]
42 | B (B=1-10 uM) | COC(=O)CCc1cnc(-c2ccc(NCC3(c4ncccc4F)CCC3)nn2)s1 [methyl 3-{2-[6-({[(3-fluoro-2-pyridyl)cyclobutyl]methyl}ami-no)pyridazin-3-yl]-1,3-thiazol-5-yl}propanoate]
